Laboratory results published in the supplement of paper PMC10307832.

Legend:
Experiment in all cases: relative viability (nuclei count vs DMSO), 5 days (fraction); higher = more cells survive
[1] = compound: O=c1[nH]cc(F)c(=O)[nH]1 [5-Fluorouracil] + Cc1nc(Nc2ncc(C(=O)Nc3c(C)cccc3Cl)s2)cc(N2CCN(CCO)CC2)n1 [Dasatinib] (partner 0.075 µM)
Method in brief: (§1)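 After 5 days of treatment, lung cancer cells in 1536-well plates were fixed and stained in a single step (final 0.05% Triton X-100, 1% formaldehyde, 1 ug/ml Hoechst) and their nuclei counted on 4× images. Treatment had been applied by pin tool the day after seeding as one drug alone or as a fixed anchor-drug dose with five library-drug doses (not always all listed) in √10 steps. Relative viability is the nuclei count of treated wells divided by that of vehicle wells, and values are medians of duplicate plates.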

[2] = compound: CN[C@@H]1C[C@H]2O[C@@](C)([C@@H]1OC)n1c3ccccc3c3c4c(c5c6ccccc6n2c5c31)C(=O)NC4 [Staurosporine] + CC(=O)Nc1cccc(-n2c(=O)n(C3CC3)c(=O)c3c(Nc4ccc(I)cc4F)n(C)c(=O)c(C)c32)c1 [Trametinib] (partner 0.02 µM)
Method in brief: as §1

Sulindac + Tozasertib = compound: CC1=C(CC(=O)O)c2cc(F)ccc2/C1=C\c1ccc([S+](C)[O-])cc1 [Sulindac] + Cc1cc(Nc2cc(N3CCN(C)CC3)nc(Sc3ccc(NC(=O)C4CC4)cc3)n2)n[nH]1 [Tozasertib] (partner 0.1 µM)
Method in brief: as §1

[3] = compound: CN[C@@H]1C[C@H]2O[C@@](C)([C@@H]1OC)n1c3ccccc3c3c4c(c5c6ccccc6n2c5c31)C(=O)NC4 [Staurosporine] + Nc1nc2[nH]cc(CCc3ccc(C(=O)N[C@@H](CCC(=O)O)C(=O)O)cc3)c2c(=O)[nH]1 [Pemetrexed] (partner 0.2 µM)
Method in brief: as §1

Row | Cell Line | relative viability ([1]; first compound 0.02 µM) | relative viability ([1]; first compound 0.2 µM) | relative viability ([1]; first compound 0.6325 µM) | relative viability ([1]; first compound 2 µM) | relative viability ([2]; first compound 0.005 µM) | relative viability ([2]; first compound 0.01581 µM) | relative viability ([2]; first compound 0.05 µM) | relative viability ([2]; first compound 0.1581 µM) | relative viability ([2]; first compound 0.5 µM) | relative viability (Sulindac + Tozasertib; first compound 0.08 µM) | relative viability (Sulindac + Tozasertib; first compound 0.253 µM) | relative viability (Sulindac + Tozasertib; first compound 0.8 µM) | relative viability (Sulindac + Tozasertib; first compound 2.53 µM) | relative viability (Sulindac + Tozasertib; first compound 8 µM) | relative viability ([3]; first compound 0.005 µM) | relative viability ([3]; first compound 0.01581 µM) | relative viability ([3]; first compound 0.05 µM) | relative viability ([3]; first compound 0.1581 µM) | relative viability ([3]; first compound 0.5 µM)
1 | NCI-H460 | 0.584 | 0.488 | 0.159 | 0.0618 | 0.0592 | 0.0305 | 0.0206 | 0.0114 | 0.0063 | 0.639 | 0.439 | 0.667 | 0.46 | 0.314 | 0.065 | 0.0547 | 0.0426 | 0.0415 | 0.0101
2 | NCI-H520 | 0.152 | 0.234 | 0.174 | 0.142 | 0.708 | 0.536 | 0.303 | 0.16 | 0.112 | 0.431 | 0.4 | 0.435 | 0.437 | 0.48 | 0.579 | 0.394 | 0.295 | 0.181 | 0.148
3 | NCI-H522 | 0.844 | 0.852 | 0.979 | 0.868 | 0.667 | 0.775 | 0.627 | 0.623 | 0.59 | 0.676 | 0.643 | 0.541 | 0.502 | 0.575 | 1.08 | 0.7 | 0.847 | 0.742 | 0.579
4 | NCI-H596 | 0.717 | 0.605 | 0.48 | 0.366 | 0.753 | 0.494 | 0.275 | 0.184 | 0.173 | 0.877 | 0.939 | 0.913 | 0.946 | 1 | 0.485 | 0.265 | 0.297 | 0.27 | 0.148
5 | NCI-H647 | 0.193 | 0.232 | 0.206 | 0.188 | 0.295 | 0.151 | 0.0868 | 0.0601 | 0.0349 | 0.35 | 0.364 | 0.481 | 0.566 | 0.448 | 0.118 | 0.0997 | 0.104 | 0.0736 | 0.0566
6 | NCI-H650 | 0.444 | 0.341 | 0.287 | 0.336 | 1.07 | 0.383 | 0.27 | 0.222 | 0.151 | 0.76 | 0.744 | 0.71 | 0.607 | 0.757 | 0.64 | 0.257 | 0.235 | 0.23 | 0.228
7 | NCI-H661 | 0.962 | 1.01 | 0.81 | 0.851 | 0.522 | 0.336 | 0.29 | 0.248 | 0.137 | 0.351 | 0.336 | 0.362 | 0.362 | 0.38 | 0.901 | 0.667 | 0.542 | 0.353 | 0.186
8 | NCI-H838 | 0.293 | 0.291 | 0.243 | 0.27 | 0.174 | 0.145 | 0.208 | 0.0937 | 0.0589 | 0.283 | 0.269 | 0.253 | 0.248 | 0.218 | 0.205 | 0.148 | 0.144 | 0.111 | 0.112
9 | NCI-H1355 | 0.824 | 0.58 | 0.283 | 0.234 | 0.279 | 0.255 | 0.232 | 0.22 | 0.147 | 0.544 | 0.607 | – | 0.502 | 0.57 | 0.999 | 0.609 | 0.449 | 0.27 | 0.2
10 | NCI-H1395 | 0.39 | 0.45 | 0.367 | 0.442 | 0.98 | 0.77 | 0.476 | 0.305 | 0.261 | 0.694 | 0.732 | 0.776 | 0.733 | 0.866 | 0.789 | 0.341 | 0.316 | 0.31 | 0.255
11 | NCI-H1437 | 0.369 | 0.183 | 0.189 | 0.137 | 0.342 | 0.244 | 0.26 | 0.21 | 0.124 | 0.438 | 0.434 | 0.32 | 0.397 | 0.429 | 0.268 | 0.214 | 0.182 | 0.17 | 0.131
12 | NCI-H1650 | 0.297 | 0.291 | 0.202 | 0.218 | 0.501 | 0.364 | 0.187 | 0.112 | 0.0438 | 0.456 | 0.381 | – | 0.287 | 0.426 | 0.325 | 0.239 | 0.209 | 0.23 | 0.104
13 | NCI-H1651 | 0.438 | 0.363 | 0.276 | 0.401 | 0.871 | 0.785 | 0.569 | 0.509 | 0.346 | 0.755 | 0.66 | – | 0.686 | 0.666 | 0.613 | 0.426 | 0.274 | 0.156 | 0.159
14 | NCI-H1666 | 0.848 | 0.555 | 0.4 | 0.391 | 0.785 | 0.573 | 0.635 | 0.513 | 0.456 | 0.624 | 0.627 | 0.593 | 0.562 | 0.648 | 0.737 | 0.613 | 0.53 | 0.538 | 0.415
15 | NCI-H1734 | 0.41 | 0.521 | 0.407 | 0.291 | 0.715 | 0.387 | 0.165 | 0.119 | 0.101 | 0.221 | 0.25 | – | 0.295 | 0.286 | 0.394 | 0.305 | 0.338 | 0.133 | 0.141
16 | NCI-H1755 | 0.416 | 0.442 | 0.247 | 0.184 | 0.663 | 0.479 | 0.263 | 0.212 | 0.193 | 0.52 | 0.586 | 0.573 | 0.593 | 0.694 | 0.348 | 0.321 | 0.236 | 0.224 | 0.223
